From patent publication US11125659B2, “Preservative solution for heme protein, and method for stabilizing heme protein” (EIKEN KAGAKU KABUSHIKI KAISHA, priority 2015, dated 2021)

Test system: hemoglobin
Test: Residual percentage of hemoglobin in buffer solution with additive after storage at 37° C., hemoglobin concentration by latex agglutination immunoassay (OC sensor DIANA)
Design: species or system human
Conditions: for Residual percentage After 6 hours of storage / Residual percentage After 24 hours of storage: 37° C.; for effect of stabilizing hemoglobin (result in words): storage at 37° C., 6 and 24 hours, versus control sample; for residual percentages of hemoglobin after 6 hours of storage and after 24 hours of storage (result in words): stored at a high temperature of 37° C.
Procedure: A solution (pH7.0) containing 0.3 w/v % bovine serum albumin, NaOH, 0.05 mol/L phosphate buffer solution as a buffer solution, and pure water as the remainder was prepared. 1,2-EDS as an additive was added, to the solution in such an amount as to give each concentration (0.01 to 0.2 mol/L) listed in Table 1, thereby preparing a solution at each concentration. Hemolytic hemoglobin was added to 10 mL of the prepared solutions in such an amount as to give a 600 ng/mL sample.
Immediately after addition of hemoglobin, the hemoglobin concentration (concentration immediately after addition) of each sample was measured. Subsequently, each sample was stored at 37° C. With the time of adding hemoglobin designated as 0 hour of storage, hemoglobin concentration of each sample was measured after 6 hours of storage and after 24 hours of storage (concentration after 6 hours of storage and concentration after 24 hours of storage).
Hemoglobin concentration was measured using an OC sensor DIANA analyzer (Eiken Chemical Co., Ltd) and a dedicated reagent (OC-Hemodia Auto III: Eiken Chemical Co., Ltd) based on the measurement principle, a latex agglutination reaction; that is, a type of immunoassay method. Specifically, 35 μL of the sample was collected and used as a test solution, and then 60 μL of latex (latex solution sensitized with 20 vol % anti-human hemoglobin rabbit polyclonal antibody) and 300 μL of diluent (11.92 mg/mL HEPES) were added to the test solution, followed by measurement of absorbance at a wavelength of 660 nm. Based on a previously produced calibration curve, hemoglobin concentration in the test solution was determined from the thus obtained measurement value. Measurement was performed in triplicate for each sample, the mean value of the measurement results was employed as the hemoglobin concentration of each sample.
From the thus measured hemoglobin concentrations, the residual percentages of hemoglobin were found based on the following formula.
Residual percentage [%] of hemoglobin after 6 hours of storage or after 24 hours of storage=100×hemoglobin concentration [ng/mL] after 6 hours of storage or after 24 hours of storage/concentration [ng/mL] immediately after addition in control sample.
Specifically, the residual percentage of hemoglobin of each sample is a relative value with the hemoglobin concentration (immediately after addition) in a control sample designated as 100%. The control sample in this example was a phosphate buffer solution (containing no 1,2-EDS) containing bovine serum albumin and NaOH, and the concentration immediately after addition in the control sample was 583 ng/mL.
Samples were prepared in a manner similar to Example 1 except that 0.05 mol/L N-(2-hydroxyethyl)piperazine-N′-ethanesulfonic acid (hereinafter, referred to as HEPES) was used instead of a phosphate buffer solution and that 1,2-EDS was added in such an amount as to give each concentration (0.005 to 0.2 mol/L) listed in Table 2, and then hemoglobin concentrations were measured. In addition, the residual percentage of each sample was represented by a relative value with the concentration immediately after addition (576 ng/mL) in a control sample (HEPES buffer solution (containing no 1,2-EDS) containing bovine serum albumin and NaOH) designated as 100%.
Samples were prepared in a manner similar to Example 1 except that 0.05 mol/L HEPES, 0.05 mol/L piperazine-N,N′-bis(2-ethanesulfonic acid) (hereinafter, referred to as PIPES) or 0.05 mol/L 2-morpholinoethanesulfonic acid (hereinafter, referred to as MES) was used instead of a phosphate buffer solution, and that 1,2-EDS was added in such an amount as to give each concentration listed in Table 3, and then hemoglobin concentrations were measured. […]

[1] = phosphate buffer, additive 50 mM, relative to phosphate control (548 ng/mL)
[2] = phosphate buffer pH7.0, additive 10 mM, relative to control immediately after addition (583 ng/mL)
[3] = HEPES buffer, additive 5 mM, relative to HEPES control (576 ng/mL)
[4] = HEPES buffer, additive 10 mM, relative to HEPES control (576 ng/mL)
[5] = HEPES buffer, additive 20 mM, relative to HEPES control (576 ng/mL)
[6] = HEPES buffer, additive 20 mM, relative to phosphate control (583 ng/mL)
[7] = HEPES buffer, additive 40 mM, relative to HEPES control (576 ng/mL)
[8] = HEPES buffer, additive 60 mM, relative to HEPES control (576 ng/mL)
[9] = HEPES buffer, additive 100 mM, relative to HEPES control (576 ng/mL)
[10] = HEPES buffer, additive 150 mM, relative to HEPES control (576 ng/mL)
[11] = HEPES buffer, additive 200 mM, relative to HEPES control (576 ng/mL)
[12] = MES buffer, additive 20 mM, relative to phosphate control (583 ng/mL)
[13] = PIPES buffer, additive 20 mM, relative to phosphate control (583 ng/mL)
[14] = phosphate buffer, additive 20 mM, relative to control (583 ng/mL)
[15] = phosphate buffer, additive 40 mM, relative to control (583 ng/mL)
[16] = phosphate buffer, additive 60 mM, relative to control (583 ng/mL)
[17] = phosphate buffer, additive 100 mM, relative to control (583 ng/mL)
[18] = phosphate buffer, additive 150 mM, relative to control (583 ng/mL)
[19] = phosphate buffer, additive 200 mM, relative to control (583 ng/mL)
[20] = HEPES buffer, additive 150 mM, relative to phosphate control (548 ng/mL)
[21] = phosphate buffer, additive 150 mM, relative to phosphate control (548 ng/mL)

O=S(=O)(O)c1ccc2cc(S(=O)(=O)O)ccc2c1 [2,6-NDS, 2,6-naphthalenedisulfonic acid]
Residual percentage After 6 hours of storage [1]: 55.7%
Residual percentage After 24 hours of storage [1]: 11.1%
effect of stabilizing hemoglobin (result in words): effect of stabilizing hemoglobin
residual percentages of hemoglobin after 6 hours of storage and after 24 hours of storage (result in words): high levels

O=S(=O)(O)c1cccc2cccc(Nc3ccccc3)c12 [ANS, 8-anilino-1-naphthalenesulfonate, reference compound]
Residual percentage After 6 hours of storage [2]: 2.6%
Residual percentage After 24 hours of storage [2]: 2.5%

O=S(=O)(O)CCS(=O)(=O)O [1,2-EDS, 1,2-ethanedisulfonic acid]
Residual percentage After 6 hours of storage [3]: 64.3%
Residual percentage After 24 hours of storage [3]: 14.0%
Residual percentage After 6 hours of storage [4]: 65.2%
Residual percentage After 24 hours of storage [4]: 16.6%
Residual percentage After 6 hours of storage [5]: 67.1%
Residual percentage After 24 hours of storage [5]: 18.1%
Residual percentage After 6 hours of storage [6]: 67.6%
Residual percentage After 24 hours of storage [6]: 20.2%
Residual percentage After 6 hours of storage [7]: 68.5%
Residual percentage After 24 hours of storage [7]: 19.7%
Residual percentage After 6 hours of storage [8]: 71.3%
Residual percentage After 24 hours of storage [8]: 20.8%
Residual percentage After 6 hours of storage [9]: 72.4%
Residual percentage After 24 hours of storage [9]: 21.6%
Residual percentage After 6 hours of storage [10]: 72.8%
Residual percentage After 24 hours of storage [10]: 20.4%
Residual percentage After 6 hours of storage [11]: 73.1%
Residual percentage After 24 hours of storage [11]: 21.8%
Residual percentage After 6 hours of storage [12]: 65.9%
Residual percentage After 24 hours of storage [12]: 18.7%
Residual percentage After 6 hours of storage [13]: 63.6%
Residual percentage After 24 hours of storage [13]: 14.3%
Residual percentage After 6 hours of storage [2]: 52.5%
Residual percentage After 24 hours of storage [2]: 7.5%
Residual percentage After 6 hours of storage [14]: 56.3%
Residual percentage After 24 hours of storage [14]: 9.0%
Residual percentage After 6 hours of storage [15]: 61.9%
Residual percentage After 24 hours of storage [15]: 12.8%
Residual percentage After 6 hours of storage [16]: 59.7%
Residual percentage After 24 hours of storage [16]: 12.3%
Residual percentage After 6 hours of storage [17]: 65.4%
Residual percentage After 24 hours of storage [17]: 16.6%
Residual percentage After 6 hours of storage [18]: 71.5%
Residual percentage After 24 hours of storage [18]: 24.3%
Residual percentage After 6 hours of storage [19]: 46.2%
Residual percentage After 24 hours of storage [19]: 7.9%
effect of stabilizing hemoglobin (result in words): effect of stabilizing hemoglobin
residual percentages of hemoglobin after 6 hours of storage and after 24 hours of storage (result in words): high levels

O=S(=O)(O)CCN1CCN(CCS(=O)(=O)O)CC1 [PIPES, piperazine-N,N′-bis(2-ethanesulfonic acid)]
Residual percentage After 6 hours of storage [1]: 58.4%
Residual percentage After 24 hours of storage [1]: 10.4%
effect of stabilizing hemoglobin (result in words): effect of stabilizing hemoglobin

O=S(=O)([O-])CCS.[Na+] [MESS, sodium 2-mercaptoethanesulfonate, reference compound]
Residual percentage After 6 hours of storage [2]: 33.4%
Residual percentage After 24 hours of storage [2]: 3.3%

O=S(=O)(O)CCCCS(=O)(=O)O [1,4-BDS, 1,4-butanedisulfonic acid]
Residual percentage After 6 hours of storage [20]: 74.7%
Residual percentage After 24 hours of storage [20]: 28.4%
Residual percentage After 6 hours of storage [1]: 68.3%
Residual percentage After 24 hours of storage [1]: 14.5%
Residual percentage After 6 hours of storage [21]: 69.9%
Residual percentage After 24 hours of storage [21]: 18.4%
effect of stabilizing hemoglobin (result in words): effect of stabilizing hemoglobin
residual percentages of hemoglobin after 6 hours of storage and after 24 hours of storage (result in words): high levels
